Bridge positions count the residues as written; N and C are the ends. Square brackets hold non-standard residues; d marks the D form. Peptide text beside a SMILES is read from it. R8 = C=CCCCCCC[C@@](C)(N)C(=O)O; R5 = C=CCCC[C@@](C)(N)C(=O)O; S5 = C=CCCC[C@](C)(N)C(=O)O
How the values were obtained:
[1] = molecular target: 5HB, a recombinant protein containing 3 HR1 domains covalently attached to 2 HR2 domains; conditions: competition with fluorescently labeled T108 probe (2 nM), 5HB 50 nM, 10 min preincubation + 30 min room temperature, duplicates
From the text: The RSV HR2 region (residues 476 to 524) is a 49-amino-acid sequence that has been extensively characterized (Fig. 1). HR2 is a largely unstructured peptide in aqueous solution folding into an α-helix upon binding to trimeric HR1 coiled coils ([20]). […] We reduced HR2 (aa 483 to 516) into three short overlapping subdomains (subdomains 1 to 3) (Fig. 1). These peptides were scanned for various stapling combinations. […] Far-UV circular dichroism (CD) spectropolarimetry was used to investigate the effect of stapling on the α-helical content of the peptides. […] To assess the propensity of the stapled peptides to hinder the formation of the postfusion six-helix bundle required for viral cell entry, we used a 5-helix bundle (5HB) biochemical fluorescence polarization (FP) competition assay as previously described ([21], [22]).
The coding sequence of 5HB was designed as described previously and de novo synthesized by Genscript ([21]). The HR1 (aa 126 to 182) and HR2 (aa 476 to 524) coding sequences from wild-type RSV A2 strain F ([36]) were codon optimized for overexpression in Escherichia coli and cloned at NdeI/BamHI restriction sites of pET-15b to generate the expression plasmid for 5HB. The 5HB expression construct was transformed into Escherichia coli BL21(DE3). Cells were grown at 37°C to an optical density at 600 nm of 0.8 followed by induction with isopropyl-1-thio-β-D-galactopyranoside at a final concentration of 0.5 mM for 12 to 15 h. Cells were harvested by centrifugation, washed twice with PBS, and resuspended in 20 ml of PBS (pH 7.4), 500 mM NaCl, and 1% Triton X-100 supplemented with complete protease inhibitor. Cell suspensions were disrupted by sonication. Cell debris was removed through ultracentrifugation at 18,000 × g for 1 h at 4°C, and clarified cell lysate was mixed with 1 ml of nickel-nitrilotriacetic acid (Ni-NTA) agarose beads (Qiagen) preequilibrated with 20 ml of lysis buffer. The suspension was agitated for 1 h at 4°C and loaded onto a 5-ml polypropylene column (Qiagen). The column was washed twice with 8 ml of PBS (pH 7.4), 500 mM NaCl, 1% Triton X-100, and 100 mM imidazole. Proteins were eluted with 5 × 500 μl of a buffer containing PBS (pH 7.4), 300 mM imidazole, and 500 mM NaCl. The imidazole was removed by dialysis, and protein purity was assessed by SDS-polyacrylamide gel electrophoresis followed by Coomassie blue staining. Protein concentration was determined with the Qubit 2.0 Fluorometer (Life Technologies).
The T108 ([12]) peptide probe was synthesized by standard SPPS procedures using HCTU as a coupling reagent as described above. A 10-μl volume of recombinant 5HB protein in FP buffer (20 mM PBS [pH 7.4], 500 mM NaCl, 0.01% [vol/vol] Tween 20, and 0.05 mg/ml bovine gamma globulin) was preincubated for 10 min at room temperature with 10 μl of the appropriate concentration of the inhibitor, after which 10 μl of fluorescein isothiocyanate (FITC)-T106 was added and further incubated for 30 min at room temperature. The final concentrations of protein and probe were 50 nM and 2 nM, respectively. The fluorescence polarization assay was performed in 384-well plates using a Spectramax Paradigm (Molecular Devices), using excitation and emission wavelengths of 485 nm and 535 nm, respectively. The acquisition time was 700 ms, and the read height was 1 mm. All experiments were performed in duplicate. […] In order to ensure robust fitting for some fits, r0 was kept constant at the value measured for the free tracer in buffer.

circular dichroism = conditions: 10 mM phosphate; pH 7.5; 25 °C; 50 uM

| SMILES | Kd [1] [µM] | helicity (circular dichroism) [%] |
| --- | --- | --- |
| CC[C@H](C)[C@H](NC(=O)[C@H](Cc1ccccc1)NC(=O)[C@H](C)NC(=O)[C@H](CC(C)C)NC(=O)[C@H](CO)NC(=O)[C@H](CCC(N)=O)NC(=O)[C@H](CC(N)=O)NC(=O)[C@@H](NC(=O)[C@]1(C)CCCC=CCCC[C@](C)(NC(=O)[C@H](CO)NC(=O)[C@@H](NC(=O)[C@H](CCC(=O)O)NC(C)=O)[C@@H](C)CC)C(=O)N[C@@H](C(C)C)C(=O)N[C@@H](CC(N)=O)C(=O)N[C@@H](CCC(=O)O)C(=O)N1)[C@@H](C)CC)C(=O)N[C@@H](CCCNC(=N)N)C(N)=O [Peptide 2a] (Ac-EIS[S5]VNE[S5]INQSLAFIR-NH2; staple 4-8) | 405 ± 121 | 5.2 |
| CC[C@H](C)[C@H](NC(=O)[C@H](Cc1ccccc1)NC(=O)[C@]1(C)CCCC=CCCC[C@](C)(NC(=O)[C@@H](NC(=O)[C@H](CCCCN)NC(=O)[C@H](CCC(=O)O)NC(=O)[C@H](CC(N)=O)NC(=O)[C@@H](NC(=O)[C@H](CCC(N)=O)NC(=O)[C@H](CO)NC(=O)[C@@H](NC(=O)[C@H](CCC(=O)O)NC(C)=O)[C@@H](C)CC)C(C)C)[C@@H](C)CC)C(=O)N[C@@H](CCC(N)=O)C(=O)N[C@@H](CO)C(=O)N[C@@H](CC(C)C)C(=O)N1)C(=O)N[C@@H](CCCNC(=N)N)C(N)=O [Peptide 2b] (Ac-EISQVNEKI[S5]QSL[S5]FIR-NH2; staple 10-14) | 369 ± 99 | 35.8 |
| CC[C@H](C)[C@H](NC(=O)[C@H](Cc1ccccc1)NC(=O)[C@H](C)NC(=O)[C@H](CC(C)C)NC(=O)[C@H](CO)NC(=O)[C@]1(C)CCCC=CCCC[C@@](C)(NC(=O)[C@H](CCC(=O)O)NC(=O)[C@H](CC(N)=O)NC(=O)[C@@H](NC(=O)[C@H](CCC(N)=O)NC(=O)[C@H](CO)NC(=O)[C@@H](NC(=O)[C@H](CCC(=O)O)NC(C)=O)[C@@H](C)CC)C(C)C)C(=O)N[C@@H]([C@@H](C)CC)C(=O)N[C@@H](CC(N)=O)C(=O)N1)C(=O)N[C@@H](CCCNC(=N)N)C(N)=O [Peptide 2c] (Ac-EISQVNE[R5]IN[S5]SLAFIR-NH2; staple 8-11) | 125 ± 16 | 13.8 |
| CC[C@H](C)[C@H](NC(=O)[C@H](Cc1ccccc1)NC(=O)[C@]1(C)CCCC=CCCCCCC[C@@](C)(NC(=O)[C@H](CC(N)=O)NC(=O)[C@@H](NC(=O)[C@H](CCC(N)=O)NC(=O)[C@H](CO)NC(=O)[C@@H](NC(=O)[C@H](CCC(=O)O)NC(C)=O)[C@@H](C)CC)C(C)C)C(=O)N[C@@H](CCCCN)C(=O)N[C@@H]([C@@H](C)CC)C(=O)N[C@@H](CC(N)=O)C(=O)N[C@@H](CCC(N)=O)C(=O)N[C@@H](CO)C(=O)N[C@@H](CC(C)C)C(=O)N1)C(=O)N[C@@H](CCCNC(=N)N)C(N)=O [Peptide 2e] (Ac-EISQVN[R8]KINQSL[S5]FIR-NH2; staple 7-14) | 76 ± 4 | 27.4 |
| CC[C@H](C)[C@H](NC(=O)[C@H](CCC(=O)O)NC(C)=O)C(=O)N[C@@H](CO)C(=O)N[C@@H](CCC(N)=O)C(=O)N[C@H](C(=O)N[C@@H](CC(N)=O)C(=O)N[C@@H](CCC(=O)O)C(=O)N[C@@H](CCCCN)C(=O)N[C@H](C(=O)N[C@]1(C)CCCCCCC=CCCC[C@@](C)(C(N)=O)NC(=O)[C@H]([C@@H](C)CC)NC(=O)[C@H](Cc2ccccc2)NC(=O)[C@H](C)NC(=O)[C@H](CC(C)C)NC(=O)[C@H](CO)NC(=O)[C@H](CCC(N)=O)NC1=O)[C@@H](C)CC)C(C)C [Peptide 2f] (Ac-EISQVNEKI[R8]QSLAFI[S5]-NH2; staple 10-17) | 363 ± 238 | 15.7 |
| CC[C@H](C)[C@H](NC(=O)[C@H](Cc1ccccc1)NC(=O)[C@H](C)NC(=O)[C@H](CC(C)C)NC(=O)[C@H](CO)NC(=O)[C@H](CCC(N)=O)NC(=O)[C@H](CCC(=O)O)NC(C)=O)C(=O)N[C@@H](CCCNC(=N)N)C(=O)N[C@@H](CCCCN)C(=O)N[C@@H](CO)C(=O)N[C@@H](CC(=O)O)C(=O)N[C@@H](CCC(=O)O)C(=O)N[C@@H](CC(C)C)C(=O)N[C@@H](CC(C)C)C(=O)N[C@@H](Cc1c[nH]cn1)C(=O)N[C@@H](CC(N)=O)C(=O)N[C@H](C(N)=O)C(C)C [Peptide 3] (Ac-EQSLAFIRKSDELLHNV-NH2) | > 10.8 | 5.9 |
| CC[C@H](C)[C@H](NC(=O)[C@H](Cc1ccccc1)NC(=O)[C@H](C)NC(=O)[C@H](CC(C)C)NC(=O)[C@H](CO)NC(=O)[C@H](CCC(N)=O)NC(=O)[C@H](CCC(=O)O)NC(C)=O)C(=O)N[C@@]1(C)CCCC=CCCC[C@@](C)(C(=O)N[C@@H](CC(C)C)C(=O)N[C@@H](CC(C)C)C(=O)N[C@@H](Cc2c[nH]cn2)C(=O)N[C@@H](CC(N)=O)C(=O)N[C@H](C(N)=O)C(C)C)NC(=O)[C@H](CC(=O)O)NC(=O)[C@H](CO)NC(=O)[C@H](CCCCN)NC1=O [Peptide 3b] (Ac-EQSLAFI[S5]KSD[S5]LLHNV-NH2; staple 8-12) | 55.9 ± 4 | 23 |
| CC[C@H](C)[C@H](NC(=O)[C@H](Cc1ccccc1)NC(=O)[C@H](C)NC(=O)[C@H](CC(C)C)NC(=O)[C@H](CO)NC(=O)[C@H](CCC(N)=O)NC(=O)[C@H](CCC(=O)O)NC(C)=O)C(=O)N[C@@H](CCCNC(=N)N)C(=O)N[C@@H](CCCCN)C(=O)N[C@@H](CO)C(=O)N[C@@H](CC(=O)O)C(=O)N[C@@]1(C)CCCC=CCCC[C@@](C)(C(=O)N[C@H](C(N)=O)C(C)C)NC(=O)[C@H](Cc2c[nH]cn2)NC(=O)[C@H](CC(C)C)NC(=O)[C@H](CC(C)C)NC1=O [Peptide 3c] (Ac-EQSLAFIRKSD[S5]LLH[S5]V-NH2; staple 12-16) | > 216 | 18.7 |
| CC[C@H](C)[C@@H]1NC(=O)[C@H](Cc2ccccc2)NC(=O)[C@](C)(NC(=O)[C@H](CC(C)C)NC(=O)[C@H](CO)NC(=O)[C@H](CCC(N)=O)NC(=O)[C@H](CCC(=O)O)NC(C)=O)CCCCCCC=CCCC[C@@](C)(C(=O)N[C@@H](CC(C)C)C(=O)N[C@@H](CC(C)C)C(=O)N[C@@H](Cc2c[nH]cn2)C(=O)N[C@@H](CC(N)=O)C(=O)N[C@H](C(N)=O)C(C)C)NC(=O)[C@H](CC(=O)O)NC(=O)[C@H](CO)NC(=O)[C@H](CCCCN)NC(=O)[C@H](CCCNC(=N)N)NC1=O [Peptide 3e] (Ac-EQSL[R8]FIRKSD[S5]LLHNV-NH2; staple 5-12) | 71 ± 34 | 17.5 |

From PMC5365662, “A Short Double-Stapled Peptide Inhibits Respiratory Syncytial Virus Entry and Spreading” (Antimicrobial Agents and Chemotherapy, 2017)
